{"source": "patent US20060135432A1", "about": "“Agonists and antagonists of conadotropin-releasing hormone-2, and use thereof” (priority 2002, published 2006)", "key": {"Primate GnRH-2 receptor [1]": {"tested_on": "Primate GnRH-2 receptor", "experiment": "Inhibition of GnRH-2-induced c-fos-luc luciferase activity in cells expressing Primate GnRH-2 receptor", "type": "cell-based", "settings": "treated at the same time as GnRH-2", "protocol": "(§1) Complimentary DNA (cDNA) for a Primate GnRH-2 receptor was obtained from a CV-1 cell genome. […] Plasmids having Primate GnRH-2 receptors where transfected into CV-1 cells. To assay the activity of the receptor, c-fos-luc where a luciferase gene is fused with a c-fos promoter was co-transfected as a probe gene. After 48 hours from transfection, the cells were treated with GnRH-2 agonists and then the activity of luciferase was assayed (Seong et al., Endocrinology vol 144 2003, 454-466).\nIn the same manner as in 2-3 above, Primate GnRH-2 receptors were co-transfected along with c-fos-luc reporter genes, and after 48 hours, GnRH-2 and GnRH-2 antagonists were treated thereinto at the same time and then the effect of GnRH-2 antagonists was observed."}, "bullfrog GnRH receptors": {"tested_on": "bullfrog GnRH receptors", "experiment": "Antagonist effect on IP production in GH3 cells expressing bullfrog GnRH receptors (bfGnRHR-2 and bfGnRHR-3 together)", "type": "cell-based", "settings": "GH3 cells expressing bfGnRHR-2 and bfGnRHR-3, no GnRH-2", "description": "In summary, it is concluded that Trptorelix is a very specific antagonist for GnRH-2. GH3 cell lines were obtained from the Cell Line Bank at the Cancer Research Center, Seoul National University College of Medicine, located in Seoul, Republic of Korea. The GH3 cell lines were infected with retroviruses comprising genes encoding […]-2, and bfGnRHR-3 which are bullfrog GnRH receptors, and rat GnRHR, and cell lines expressing each of these receptors were obtained. The GH3 cells expressing […]-3, and rat GnRHR were cultured on 12-well plates. After 24 hours, the cells were cultured again for 24 hours in a media containing no inositol, to which H^3-myoinositol was added. The resultant cells were washed with buffer A (140 mM NaCl, 20 mM HEPES, 4 mM KCl, 8 mM D-Glucose, 1 mM MgCl2, 1 mM CaCl2, 1 mg/ml BSA) and then cultured in buffer A containing 10 mM LiCl at 37°C. for 30 minutes. Thereafter, they were treated with GnRH having a suitable concentration, cultured at 37° C. for another 30 minutes, and then the media was eliminated. The cells were treated with 10 mM of ice-cold formic acid to terminate the reaction, and the cell extracts were mixed with Dowex anionic exchange resins. These resins were washed with distilled water, IP was extracted with 1 M ammonium formate/0.1 M formic acid, and cpm (count per minute) was determined."}, "rat GnRHR [2]": {"target": "T1, rat GnRHR (Rattus norvegicus, UniProt P30969)", "T1 construct": "expressed in transfected cells; host or cells: GH3 cells, retroviral infection", "T1 sequence (P30969 1-327)": "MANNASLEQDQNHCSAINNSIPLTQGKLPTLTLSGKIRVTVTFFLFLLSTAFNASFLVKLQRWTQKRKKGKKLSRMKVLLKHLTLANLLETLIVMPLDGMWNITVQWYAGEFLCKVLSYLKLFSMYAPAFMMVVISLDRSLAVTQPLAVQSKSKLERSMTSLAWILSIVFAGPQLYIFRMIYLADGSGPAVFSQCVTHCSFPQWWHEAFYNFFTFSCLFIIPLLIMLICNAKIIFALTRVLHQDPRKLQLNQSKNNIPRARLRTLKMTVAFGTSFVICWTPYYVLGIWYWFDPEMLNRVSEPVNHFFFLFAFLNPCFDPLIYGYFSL", "experiment": "Inhibition of GnRH-1-induced IP production in GH3 cells expressing rat GnRHR", "type": "cell-based", "protocol": "(§2) GH3 cell lines were obtained from the Cell Line Bank at the Cancer Research Center, Seoul National University College of Medicine, located in Seoul, Republic of Korea. The GH3 cell lines were infected with retroviruses comprising genes encoding bfGnRHR-1, bfGnRHR-2, and bfGnRHR-3 which are bullfrog GnRH receptors, and rat GnRHR, and cell lines expressing each of these receptors were obtained. The GH3 cells expressing bfGnRHR-1, bfGnRHR-2, bfGnRHR-3, and rat GnRHR were cultured on 12-well plates. After 24 hours, the cells were cultured again for 24 hours in a media containing no inositol, to which H^3-myoinositol was added. The resultant cells were washed with buffer A (140 mM NaCl, 20 mM HEPES, 4 mM KCl, 8 mM D-Glucose, 1 mM MgCl2, 1 mM CaCl2, 1 mg/ml BSA) and then cultured in buffer A containing 10 mM LiCl at 37°C. for 30 minutes. Thereafter, they were treated with GnRH having a suitable concentration, cultured at 37° C. for another 30 minutes, and then the media was eliminated. The cells were treated with 10 mM of ice-cold formic acid to terminate the reaction, and the cell extracts were mixed with Dowex anionic exchange resins. These resins were washed with distilled water, IP was extracted with 1 M ammonium formate/0.1 M formic acid, and cpm (count per minute) was determined.\nHowever, Trptorelix-1 could reduce the production of IP induced by 1 nM GnRH-2, in a concentration-dependent manner (FIG. 6a to FIG. 6c)."}, "Primate GnRH-2 receptor [3]": {"tested_on": "Primate GnRH-2 receptor", "experiment": "c-fos-luc luciferase activation in CV-1 cells expressing Primate GnRH-2 receptor", "type": "cell-based", "protocol": "as §1\nOf the GnRH-2 receptors, [D-Ala^6]GnRH-2 performed excellently, showing effects about 3 times that of a wild-type ligand, GnRH-2. […] When analogs where the 5th, 7th, and 8th amino acids of [D-Ala^6]GnRH-2 are substituted were used, it was observed that their effects were weaker than [D-Ala^6]GnRH-2, and therefore it can be seen that it is important to maintain His, Trp, and Tyr that are found at the 5th, 7th, and 8th positions of GnRH-2 as they are (FIG. 3b)."}, "rat GnRHR [4]": {"target": "T1, rat GnRHR", "experiment": "Inositol phosphate (IP) production in GH3 cells expressing rat GnRHR", "type": "cell-based", "description": "The GnRH receptor, a membrane protein connected with the G protein, activates the G protein when activated by a ligand, and the activated G protein activates phospholipase C and thereby the synthesis of inositol phosphate (IP), which is the second transmitter in cells, is increased. Based on this principle, the activity of a receptor can be investigated by measuring the amount of IP within cells. GH3 cell lines were obtained from the Cell Line Bank at the Cancer Research Center, Seoul National University College of Medicine, located in Seoul, Republic of Korea. The GH3 cell lines were infected with retroviruses comprising genes encoding […]-2, and bfGnRHR-3 which are bullfrog GnRH receptors, and rat GnRHR, and cell lines expressing each of these receptors were obtained. The GH3 cells expressing […]-3, and rat GnRHR were cultured on 12-well plates. After 24 hours, the cells were cultured again for 24 hours in a media containing no inositol, to which H^3-myoinositol was added. […] Thereafter, they were treated with GnRH having a suitable concentration, cultured at 37° C. for another 30 minutes, and then the media was eliminated. The cells were treated with 10 mM of ice-cold formic acid to terminate the reaction, and the cell extracts were mixed with Dowex anionic exchange resins. These resins were washed with distilled water, IP was extracted with 1 M ammonium formate/0.1 M formic acid, and cpm (count per minute) was determined. The GH3 cell lines were infected with retroviruses comprising genes encoding […]-2, and bfGnRHR-3 which are bullfrog GnRH receptors, and rat GnRHR, and cell lines expressing each of these receptors were obtained."}, "TSU-Pri cells": {"tested_on": "TSU-Pri cells", "experiment": "Binding of radiolabeled GnRH to TSU-Pri prostate cancer cells", "design": "species or system human", "settings": "room temperature, 6 hours", "protocol": "TSU-Pri, which is one of the prostate cancer cell lines, was cultured along with the radiolabeled I^125GnRH-1 and I^125GnRH-2. […] The radiolabeled GnRH and the cells were cultured at room temperature for 6 hours, and then washed with PBS (phosphate-buffered saline) several times to eliminate the unbound GnRH. Thereafter, the cells were isolated and radioactivity from the cells was measured using a y-counter."}, "[5]": {"tested_on": "male rat (Sprague Dawley)", "experiment": "Serum LH and testosterone after injection into male rat (radioimmunoassay)", "type": "in vivo", "settings": "10 μg injected", "protocol": "Example 3: GnRH-2 Agonist-induced serum LH and testosterone levels [D-Ala^6]GnRH-2 was dissolved in saline at a concentration of 100 μg/ml, and then 10 μg of [D-Ala^6]GnRH-2 was injected into the cervix of a male rat (Sprague Dawley rat having a weight of approximately 100 g). 1, 2, 4, and 8 hours after the injection, serum was obtained from the rat. The concentration of luteinizing hormone and testosterone present in the serum was measured by radioimmunoassay."}, "bfGnRHR": {"tested_on": "bfGnRHR", "experiment": "IP production in cells expressing bfGnRHR (bullfrog receptors taken together)", "type": "cell-based", "protocol": "as §2, with “determined. […]” for “determined.”"}, "rat GnRHR [6]": {"target": "T1, rat GnRHR", "experiment": "I125-GnRH-2 competitive ligand-receptor binding, membranes of GH3 cells expressing rat GnRHR", "settings": "competition with I125-GnRH-2, 4 °C, 16 hours; read-out: Binding affinity (log IC50 value) (converted)", "protocol": "To determine the binding affinity between GnRH and GnRH receptors, GnRH-2 was radiolabeled with I^125. […] After 48 hours, the cells were homogenized to obtain cellular membranes, which were then dissolved in binding buffer (40 mM Tris, pH 7.4, 2 mM MgCl2). 20 μg of membrane proteins were reacted with I^125-GnRH-2 at 4° C. for 16 hours. […] After the reaction was completed, 1^125-GnRH-2 bound to the receptors was filtered using a Brandel harvester, and cpm was measured using a y-counter."}, "bfGnRHR-1": {"tested_on": "bfGnRHR-1", "experiment": "Inositol phosphate (IP) production in GH3 cells expressing bfGnRHR-1", "type": "cell-based, bullfrog", "description": "The GnRH receptor, a membrane protein connected with the G protein, activates the G protein when activated by a ligand, and the activated G protein activates phospholipase C and thereby the synthesis of inositol phosphate (IP), which is the second transmitter in cells, is increased. Based on this principle, the activity of a receptor can be investigated by measuring the amount of IP within cells. GH3 cell lines were obtained from the Cell Line Bank at the Cancer Research Center, Seoul National University College of Medicine, located in Seoul, Republic of Korea. The GH3 cell lines were infected with retroviruses comprising genes encoding […]-2, and bfGnRHR-3 which are bullfrog GnRH receptors, and rat GnRHR, and cell lines expressing each of these receptors were obtained. The GH3 cells expressing […]-3, and rat GnRHR were cultured on 12-well plates. After 24 hours, the cells were cultured again for 24 hours in a media containing no inositol, to which H^3-myoinositol was added. […] Thereafter, they were treated with GnRH having a suitable concentration, cultured at 37° C. for another 30 minutes, and then the media was eliminated. […] These resins were washed with distilled water, IP was extracted with 1 M ammonium formate/0.1 M formic acid, and cpm (count per minute) was determined. […]"}, "[7]": {"settings": "male rat about 100 g, 1, 2, 4, 8 hours"}}, "note": "Where a SMILES comes first, the peptide text is derived from it. [ ]: non-standard residue; d: D form. dPhe(4-Cl) = N[C@H](Cc1ccc(Cl)cc1)C(=O)O; d2Nal = N[C@H](Cc1ccc2ccccc2c1)C(=O)O; dCit = NC(=O)NCCC[C@@H](N)C(=O)O; d3Pal = N[C@H](Cc1cccnc1)C(=O)O; pGlu = O=C1CC[C@@H](C(=O)O)N1", "data": [{"smiles": "CC(=O)N[C@H](Cc1ccc2ccccc2c1)C(=O)N[C@H](Cc1ccc(Cl)cc1)C(=O)N[C@H](Cc1cccnc1)C(=O)N[C@@H](CO)C(=O)N[C@@H](Cc1ccc(O)cc1)C(=O)N[C@H](CCCNC(N)=O)C(=O)N[C@@H](Cc1c[nH]c2ccccc12)C(=O)N[C@@H](Cc1ccc(O)cc1)C(=O)N1CCC[C@H]1C(=O)N[C@H](C)C(N)=O", "note": "[Trptorelix-1, Ac-D2Nal-(4Cl)D-Phe-D-3Pal-Ser-Tyr-D-Cit-Trp-Tyr-Pro-DAlaNH2] (Ac-[d2Nal][dPhe(4-Cl)][d3Pal]SY[dCit]WYP[dA]-NH2)", "values": [{"measurement": "effect on luciferase activity induced by GnRH-2", "setting": "Primate GnRH-2 receptor [1]", "result": "reduced in a concentration-dependent manner"}, {"measurement": "IP production by the antagonist alone", "setting": "bullfrog GnRH receptors", "result": "production of IP was not observed"}, {"measurement": "IC50", "setting": "rat GnRHR [2]", "result": 0.537, "unit": "nM"}, {"measurement": "fold lower effect than Cetrorelix", "setting": "rat GnRHR [2]; rat GnRH receptors", "result": "~60", "unit": "fold"}]}, {"smiles": "C[C@@H](NC(=O)[C@H](Cc1c[nH]cn1)NC(=O)[C@H](CO)NC(=O)[C@H](Cc1c[nH]c2ccccc12)NC(=O)[C@H](Cc1c[nH]cn1)NC(=O)[C@@H]1CCC(=O)N1)C(=O)N[C@@H](Cc1c[nH]c2ccccc12)C(=O)N[C@@H](Cc1ccc(O)cc1)C(=O)N1CCC[C@H]1C(=O)NCC(N)=O", "note": "[[D-Ala^6]GnRH-2, p-Glu-His-Trp-Ser-His-D-Ala-Trp-Tyr-Pro-GlyNH2] ([pGlu]HWSH[dA]WYPG-NH2)", "values": [{"measurement": "effect, times that of wild-type ligand GnRH-2", "setting": "Primate GnRH-2 receptor [3]", "result": "about 3 times"}, {"measurement": "EC50", "setting": "rat GnRHR [4]; GH3 cells, 30 min, given as log EC50 (negative values)", "result": 3.24, "unit": "nM"}, {"measurement": "sensitivity compared with GnRH-1", "setting": "rat GnRHR [4]; rat GnRHR", "result": "a sensitivity lower than 10-fold"}, {"measurement": "effect of unradiolabeled competitor on binding of radiolabeled GnRH-2 to TSU-Pri cells", "setting": "TSU-Pri cells", "result": "reduced in a concentration-dependent manner"}, {"measurement": "time of testosterone peak point after injection", "setting": "[5]; male rat", "result": 4, "unit": "h"}, {"measurement": "serum luteinizing hormone (LH)", "setting": "[5]; [7]", "result": "an increase of luteinizing hormone (LH) was observed in only one hour"}, {"measurement": "serum testosterone", "setting": "[5]; [7]", "result": "began to rapidly increase from 2 hours after the injection"}, {"measurement": "fold higher sensitivity than GnRH-1", "setting": "bfGnRHR", "result": "40-20,000 fold"}, {"measurement": "fold higher sensitivity than GnRH-2", "setting": "bfGnRHR", "result": "2.5-10 fold"}, {"measurement": "IC50", "setting": "rat GnRHR [6]", "result": 141, "unit": "nM"}, {"measurement": "concentration activating bfGnRHR-1, fold lower than GnRH-2", "setting": "bfGnRHR-1", "result": "~8", "unit": "fold"}]}]}
